In US8466157B2, “Proteasome inhibitors having chymotrypsin-like activity” (University of South Florida, priority 2009, dated 2013):
Values joined by “and” are separate entries in the source; they are usually repeats but may differ in a detail not shown here. Identical values can stand only once. Like-named read-outs stand apart in the source and are kept apart here.

Key:
[1] = molecular target: T1, chymotrypsin-like activity of the purified rabbit 20S proteasome (Oryctolagus cuniculus, UniProt G1T4Q9); test: 20S proteasome inhibition assay, fluorogenic substrate Suc-Leu-Leu-Val-Tyr-AMC; format: biochemical; settings: for decrease of proteasome inhibition activity: 14u, 14v vs linear-chain analogues, 14q vs lead compound 10a; for proteasome inhibitory activity, SAR statement in words: chymotrypsin-like activity, compared with lead or analogue;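 on all read-outs here: enzyme and 20 µM substrate incubated 1 h at 37 °C in Tris-HCl buffer pH 7.6, fluorogenic read-out, inhibition calculated against vehicle control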
T1 sequence (G1T4Q9 1-263): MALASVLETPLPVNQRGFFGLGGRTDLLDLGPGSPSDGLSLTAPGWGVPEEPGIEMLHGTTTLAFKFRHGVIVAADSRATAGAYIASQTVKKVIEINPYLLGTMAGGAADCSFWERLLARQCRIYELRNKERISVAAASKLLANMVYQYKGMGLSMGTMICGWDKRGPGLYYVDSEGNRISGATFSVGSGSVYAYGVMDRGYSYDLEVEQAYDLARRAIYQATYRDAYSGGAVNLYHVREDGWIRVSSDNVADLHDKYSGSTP
Procedure: 20S Proteasome Inhibition Assay
In our work, we used chymotrypsin-like substrate Suc-Leu-Leu-Val-Tyr-AMC to test the proteasome inhibition activity of the synthesized compounds.
The assay was conducted by using a fluorogenic peptide as substrate to test synthesized compounds for inhibitory activity against the chymotrypsin-like activity of the purified rabbit 20S proteasome. Briefly, 70 ng of purified 20S proteasome was incubated with 20 μM Suc-Leu-Leu-Val-Tyr-AMC for 1 hour at 37° C. in 100 μl of assay buffer (50 mM Tris-HCl, pH 7.6) with or without inhibitors. […] The inhibitory activity of the compounds was calculated based on vehicle control.

[2] = individual determinations (runs M-1096, M-1098, M-1099, AK or dated), read-out: Chymotrypsin-like Activity IC50
[3] = mean of the individual determinations, read-out: Chymotrypsin-like Activity IC50 (μM), mean ± spread (n)

SMILES | melting point | IC50 [1, 2] | decrease of proteasome inhibition activity [1] | IC50 [1, 3] | proteasome inhibitory activity, SAR statement in words [1] | Chymotrypsin-like Activity Inhib at 100 μM ([1]; 100 μM)
CCOC(=O)CSc1cc(NS(=O)(=O)c2ccc(-c3ccccc3)cc2)c2ccccc2c1O [14r, Ethyl 2-(4-(biphenyl-4-ylsulfonamido)-1-hydroxynaphthalen-2-ylthio)acetate] | 166 to 168 °C |  |  |  |  | 
COC(=O)CCSC1=C/C(=N\S(=O)(=O)c2cccs2)c2ccccc2C1=O [8b, Methyl 3-(1-oxo-4-(thiophen-2-ylsulfonylimino)-1,4-dihydronaphthalen-2-ylthio) propanoate] | 140 to 142 °C |  |  |  |  | 
O=C1C(N2CCOCC2)=C/C(=N\S(=O)(=O)c2cccs2)c2ccccc21 [YG1-129, N-(3-morpholino-4-oxonaphthalen-1(4H)-ylidene)thiophene-2-sulfonamide] | 195 °C (dec.) | > 10 µM |  |  |  | 
CC(Sc1cc(NS(=O)(=O)c2ccc(Cl)cc2)c2ccccc2c1O)C(=O)O (stereo not shown) [YG2-024-1, 2-(4-(4-chlorophenylsulfonamido)-1-hydroxynaphthalen-2-ylthio)propanoic acid] | 177 to 179 °C | 9.5 µM and > 10 µM and 8 µM | ~2 fold |  |  | 
O=C1C(Sc2ncn[nH]2)=C/C(=N\S(=O)(=O)c2cccs2)c2ccccc21 [YG1-158-2, N-(3-(1H-1,2,4-triazol-5-ylthio)-4-oxonaphthalen-1(4H)-ylidene)thiophene-2-sulfonamide] | 197 °C (dec.) | 1.34 µM and 4.38 µM and 3.85 µM and 2.1 µM and 2.09 µM |  | 2.75 µM |  | 
O=C(O)CSc1cc(NS(=O)(=O)c2ccc3ccccc3c2)c2ccccc2c1O [YG2-034-2, 2-(1-hydroxy-4-(naphthalene-2-sulfonamido)naphthalen-2-ylthio)acetic acid] | 185 to 187 °C | > 10 µM and 4 µM and 5.9 µM | 3 fold |  |  | 
CC(Sc1cc(NS(=O)(=O)c2ccc3ccccc3c2)c2ccccc2c1O)C(=O)O (stereo not shown) [YG2-024-2, 2-(1-hydroxy-4-(naphthalene-2-sulfonamido)naphthalen-2-ylthio)propanoic acid] | 176 to 178 °C | 9.6 µM and 8.45 µM | ~2 fold |  |  | 
CCOC(=O)CSC1=C/C(=N\S(=O)(=O)c2ccccc2)c2ccccc2C1=O [YG1-110, Ethyl 2-(1-oxo-4-(phenylsulfonylimino)-1,4-dihydronaphthalen-2-ylthio)acetate] | 93 to 95 °C | 1.04 µM and 1.86 µM and 2.06 µM and 2.35 µM and 3.8 µM |  | 2.22 µM |  | 
COC(=O)CCSc1cc(NS(=O)(=O)c2cccs2)c2ccccc2c1O [9b, Methyl 3-(1-hydroxy-4-(thiophene-2-sulfonamido)naphthalen-2-ylthio)propanoate] | 117 to 119 °C |  |  |  |  | 
O=C(O)CCSc1cc(NS(=O)(=O)c2cccs2)c2ccccc2c1O [YG1-116, 3-(1-hydroxy-4-(thiophene-2-sulfonamido)naphthalen-2-ylthio)propanoic acid] | 185 °C (dec.) | 7.4 µM |  |  | the inhibitory activity diminished | 
CCOC(=O)CSc1cc(NS(=O)(=O)c2ccccc2)c2ccccc2c1O [YG1-113, Ethyl 2-(1-hydroxy-4-(phenylsulfonamido)naphthalen-2-ylthio)acetate] | 118 to 120 °C | 1.74 µM and 7 µM and 8.7 µM and 2.75 µM and 6.4 µM |  |  | reduced compared to acid analogues | 
CCOC(=O)CSC1=C/C(=N\S(=O)(=O)c2ccc(-c3ccccc3)cc2)c2ccccc2C1=O [YG2-011] |  | > 10 µM |  |  |  | 
O=S(=O)(Nc1ccc(O)c2ccccc12)c1cccs1 [YG1-004, N-(4-hydroxynaphthalen-1-yl)thiophene-2-sulfonamide] |  | > 30 µM and > 100 µM and 35 µM |  |  | loss of the inhibitory activity | 44% and 67%
CC(C)(C)OC(=O)COc1ccc(NS(=O)(=O)c2cccs2)c2ccccc12 [YG2-080, tert-butyl 2-(4-(thiophene-2-sulfonamido)naphthalen-1-yloxy)acetate] |  | > 10 µM |  |  |  | 
